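These data come from cells grown in 96-well plates and exposed to compound for 48 hours at five concentrations. At the GI50, growth is halved.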 The source made the active and inactive calls. No stated cut-off is given here; in the data, active = GI50 up to about 1.1 µM and inactive = higher.
What was measured:
Assay in all cases: NCI tumour cell line growth inhibition, 48 h
M19-MEL = test system: M19-MEL
DLD-1 = test system: DLD-1
DMS-273 = test system: DMS-273
XF498 = test system: XF498
LXFL 529 = test system: LXFL 529
KM-20L2 = test system: KM-20L2
RXF 631 = test system: RXF 631
SNB-78 = test system: SNB-78

Measured: GI50

c1ccc2c(c1)N=C(c1ccc3ccccc3c1)CC(c1cccc3ccccc13)S2 (centres undefined)
inactive: M19-MEL 29.9 µM | DLD-1 11.6 µM | DMS-273 36.1 µM | XF498 35 µM | LXFL 529 24.2 µM | KM-20L2 43.5 µM | RXF 631 34.4 µM

COc1cc2c(c(OC)c1OC)-c1ccc(OC)c(=O)cc1[C@@H](N(C)C=O)CC2
active: DLD-1 0.0198 µM | DMS-273 0.0116 µM | XF498 0.112 µM | SNB-78 0.0135 µM | LXFL 529 < 0.0184 µM | KM-20L2 0.0133 µM | RXF 631 0.0244 µM

CC(=O)OCCOCNC(=S)N/N=C/c1cc([N+](=O)[O-])ccc1O
inactive: M19-MEL > 100 µM | DLD-1 > 100 µM | DMS-273 > 100 µM | XF498 > 100 µM | SNB-78 > 100 µM | LXFL 529 93.8 µM | KM-20L2 61.1 µM | RXF 631 > 100 µM

Cl[Si]1(Cl)Oc2ccccc2O[Si](Cl)(Cl)Oc2ccccc2O1
inactive: M19-MEL 12 µM | DLD-1 34 µM | DMS-273 7.38 µM | XF498 15.2 µM | KM-20L2 27.1 µM | RXF 631 7.78 µM

CCOc1cccc2nc3cccc(C(=O)NCCN(C)C)c3nc12
active: DLD-1 1.05 µM | DMS-273 0.582 µM | XF498 0.116 µM
inactive: M19-MEL 1.2 µM | SNB-78 1.88 µM | LXFL 529 1.79 µM | KM-20L2 1.27 µM | RXF 631 2.6 µM

COc1cc(OC)c2c(c1)C(=O)C(CC1(C)OCCCO1)=CC2=O
inactive: M19-MEL 3.37 µM | DLD-1 4.17 µM | DMS-273 7.48 µM | XF498 9.48 µM | SNB-78 7.96 µM | LXFL 529 6.12 µM | KM-20L2 14.1 µM | RXF 631 22.3 µM

C=C1CCCC2OC(OC)CCC12 (centres undefined)
inactive: M19-MEL > 100 µM | DLD-1 > 100 µM | DMS-273 > 100 µM | XF498 > 100 µM | SNB-78 > 100 µM | LXFL 529 > 100 µM | KM-20L2 > 100 µM | RXF 631 > 100 µM

CCOC(=O)C1(Br)C(c2ccccc2)NC(=O)NC1(C)Br (centres undefined)
inactive: M19-MEL 64.1 µM | DLD-1 55.7 µM | DMS-273 90.2 µM | XF498 52.2 µM | SNB-78 > 100 µM | LXFL 529 92.5 µM | KM-20L2 > 100 µM | RXF 631 46.6 µM

OCC1OC(c2nc(C3=NCCCN3)cs2)C(O)C1O (centres undefined)
inactive: M19-MEL > 100 µM | DLD-1 > 100 µM | DMS-273 > 100 µM | XF498 > 100 µM | SNB-78 > 100 µM | LXFL 529 > 100 µM | KM-20L2 > 100 µM | RXF 631 > 100 µM

C=CCC1[C@@H](C(C)(C)C(C(C)=O)C(=O)C(=O)OC)OC(C(C)(C)C)N1C(=O)OC (some centres undefined)
inactive: M19-MEL > 100 µM | DLD-1 > 100 µM | XF498 > 100 µM | SNB-78 > 100 µM | KM-20L2 > 100 µM | RXF 631 > 100 µM

COc1ccc(OC)c(NCC#N)c1
inactive: M19-MEL > 100 µM | DMS-273 > 100 µM | XF498 > 100 µM | KM-20L2 > 100 µM | RXF 631 > 100 µM

— ChEMBL document CHEMBL1201862, “PubChem BioAssay data set” (2004)
